Data on 15 molecules can be found in ChEMBL document CHEMBL1201862, “PubChem BioAssay data set” (2004).

Among the test systems are ACHN; K562; NCI-H226; CCRF-CEM; TK-10; COLO 205; SF-268; OVCAR-5; M14; KM12; HOP-62; UACC-62; HCT-15; NCI-H460; A498.
Test in all cases: inhibition of tumour cell growth, NCI panel, 48 h

Structures are written as SMILES.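 Protocol summary: plate cells (96-well), add compound at 5 concentrations, incubate 48 h, interpolate endpoints linearly. GI50 = concentration required for 50% inhibition of growth.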 The source made the active and inactive calls. Rule as the data show it: active = GI50 up to about 1.1 µM and inactive = higher.

For `O=C1Nc2ccc(Cl)c(I)c2C1=O`, the GI50 in the experiment with ACHN is 16.7 µM (inactive); in the experiment on K562, 22.3 µM (inactive); in the experiment on NCI-H226 it was 0.608 µM (active); in the experiment with CCRF-CEM it was 15.4 µM (inactive); with TK-10 it was 38.5 µM (inactive); with COLO 205, 18.7 µM (inactive). In addition, the GI50 in the experiment on SF-268 is 17.4 µM (inactive); in the experiment with OVCAR-5, 19.7 µM (inactive); in the experiment on M14 it was 17 µM (inactive); with KM12, 26.5 µM (inactive); in the experiment with HOP-62, 19.5 µM (inactive); with UACC-62, 18.7 µM (inactive). Also, the GI50 was 20.9 µM in the experiment with HCT-15 and 21.2 µM (inactive) with NCI-H460.
For the molecule `Cc1ccccc1C(C#N)C(=O)C(=O)Nc1nc([N+](=O)[O-])cs1` (centres undefined), the GI50 in the experiment on ACHN, in the experiment with NCI-H226, with TK-10, in the experiment on SF-268, in the experiment with OVCAR-5 and in the experiment with M14 was > 100 µM (inactive) each time. Besides, the GI50 in the experiment on KM12 is > 100 µM (inactive); in the experiment with HOP-62, > 100 µM (inactive); in the experiment on UACC-62 it was > 100 µM (inactive); in the experiment with A498, > 100 µM (inactive); in the experiment with HCT-15, over 100 µM; in the experiment on NCI-H460 it was > 100 µM (inactive).
`CC1=CCCC(OC(N)=O)C1` (centres undefined): the GI50 in the experiment with ACHN, in the experiment with K562, in the experiment with CCRF-CEM, in the experiment on TK-10, in the experiment with COLO 205 and in the experiment on SF-268 was > 100 µM (inactive) in each case. For the same molecule, the GI50 was > 100 µM (inactive) with OVCAR-5; > 100 µM (inactive) in the experiment on M14; > 100 µM (inactive) in the experiment with KM12; > 100 µM (inactive) with HOP-62; > 100 µM (inactive) in the experiment on UACC-62; 32.4 µM (inactive) in the experiment on A498. For the same molecule, the values for the GI50 in the experiment with HCT-15 and in the experiment with NCI-H460 were over 100 µM and > 100 µM (inactive), respectively.
For the molecule `CCOC(=O)C[C@@]12CCCN[C@]1(C)CCc1ccccc12`, the GI50 with ACHN, with K562, in the experiment on CCRF-CEM, in the experiment on TK-10, with SF-268 and in the experiment on OVCAR-5 was > 100 µM (inactive) throughout. Further, the GI50 with M14 is > 100 µM (inactive); in the experiment with KM12, > 100 µM (inactive); in the experiment on HOP-62, > 100 µM (inactive); in the experiment on UACC-62, > 100 µM (inactive); with A498, > 100 µM (inactive); in the experiment on HCT-15 it was over 100 µM. Further, the GI50 in the experiment with NCI-H460 was > 100 µM (inactive).
`O=C(O)CNS(=O)(=O)c1ccc(NC(=O)c2ccccc2[N+](=O)[O-])cc1`: the GI50 in the experiment on ACHN, in the experiment with K562, in the experiment with CCRF-CEM, in the experiment with TK-10, with COLO 205 and in the experiment with SF-268 was > 100 µM (inactive) in each case. The GI50 in the experiment with OVCAR-5 is > 100 µM (inactive); in the experiment with M14, > 100 µM (inactive); in the experiment with UACC-62, > 100 µM (inactive); with A498, > 100 µM (inactive); with HCT-15, over 100 µM; in the experiment on NCI-H460, > 100 µM (inactive).
Regarding `C=CC(C)(C)[C@@]12CC3C(=O)N[C@@H](Cc4ccccc4)C(=O)N3[C@@H]1N(C(C)=O)c1ccccc12` (some centres undefined), the GI50 in the experiment with ACHN was 63.5 µM (inactive); in the experiment on K562 it was 49.3 µM (inactive); with NCI-H226, > 100 µM (inactive); in the experiment on CCRF-CEM, 57.1 µM (inactive); in the experiment with TK-10, > 100 µM (inactive); in the experiment with COLO 205 it was 36.5 µM (inactive). Moreover, the GI50 in the experiment on OVCAR-5 was > 100 µM (inactive); in the experiment with M14, 57.8 µM (inactive); in the experiment on KM12 it was 77.8 µM (inactive); in the experiment with HOP-62 it was > 100 µM (inactive); with UACC-62, > 100 µM (inactive); in the experiment with A498 it was > 100 µM (inactive). Besides, the GI50 in the experiment with HCT-15 was 58.1 µM; in the experiment with NCI-H460, 48.8 µM (inactive).
For `O=S1(=O)c2cc(S(=O)(=O)n3ccnc3)ccc2NC2=NCCCN21`, the GI50 was 34.3 µM (inactive) in the experiment on ACHN; 17.7 µM (inactive) with K562; 19.8 µM (inactive) with NCI-H226; 21 µM (inactive) in the experiment on CCRF-CEM; 61 µM (inactive) with TK-10; 18.6 µM (inactive) in the experiment with COLO 205. The GI50 in the experiment with SF-268 was 41.2 µM (inactive); in the experiment with OVCAR-5 it was 48.1 µM (inactive); in the experiment with M14 it was 26.7 µM (inactive); in the experiment on KM12, 24.8 µM (inactive); in the experiment on HOP-62, 22 µM (inactive); in the experiment on UACC-62 it was 48.5 µM (inactive). Besides, the GI50 in the experiment with A498 was 28 µM (inactive).
In the case of `Oc1ccc(O)c(-n2cccn2)c1-n1cccn1`, the GI50 was > 100 µM (inactive) in the experiment with ACHN; 36.8 µM (inactive) in the experiment on K562; > 10 µM (inactive) in the experiment with CCRF-CEM; > 100 µM (inactive) with TK-10; 30.5 µM (inactive) in the experiment with COLO 205; > 100 µM (inactive) in the experiment with SF-268. The GI50 in the experiment on OVCAR-5 was > 100 µM (inactive); in the experiment with M14 it was > 100 µM (inactive); in the experiment on KM12, > 100 µM (inactive); in the experiment with HOP-62 it was > 100 µM (inactive); in the experiment on UACC-62, 97.7 µM (inactive); in the experiment with A498 it was > 100 µM (inactive). In addition, the GI50 in the experiment with HCT-15 was over 100 µM; with NCI-H460, > 100 µM (inactive).
For `CCOC(=O)C1C2CCC(C2)C1(CCl)C(=O)OCC` (centres undefined), the GI50 in the experiment on ACHN, with K562, in the experiment with NCI-H226, in the experiment with CCRF-CEM, in the experiment on TK-10 and with COLO 205 was > 100 µM (inactive) in each case. In addition, the GI50 with SF-268, in the experiment on OVCAR-5, with M14, with HOP-62, in the experiment on UACC-62 and in the experiment on A498 was > 100 µM (inactive) throughout. The values for the GI50 with HCT-15 and in the experiment on NCI-H460 were over 100 µM and > 100 µM (inactive), respectively.
As for `O=C(O)C1(C(=O)O)CC1`, the GI50 in the experiment on ACHN, in the experiment with K562, in the experiment on CCRF-CEM, in the experiment with TK-10, in the experiment on COLO 205 and in the experiment with SF-268 was > 100 µM (inactive) in each case. For the same molecule, the GI50 is 54.7 µM (inactive) in the experiment on M14; > 100 µM (inactive) in the experiment on KM12; > 100 µM (inactive) in the experiment on HOP-62; > 100 µM (inactive) in the experiment on UACC-62; > 100 µM (inactive) in the experiment on A498; over 100 µM with HCT-15. For the same molecule, the GI50 in the experiment with NCI-H460 was > 100 µM (inactive).
For the molecule `CS(=O)(=O)c1ccc(-c2cc(-c3ccc(S(C)(=O)=O)cc3)[n+](-c3cc(-c4ccc(S(C)(=O)=O)cc4)c([O-])c(-c4ccc(S(C)(=O)=O)cc4)c3)c(-c3ccc(S(C)(=O)=O)cc3)c2)cc1`, the GI50 with ACHN, with K562, with NCI-H226, with CCRF-CEM, with TK-10 and in the experiment with COLO 205 was > 100 µM (inactive) each time. Besides, the GI50 in the experiment with SF-268, in the experiment on OVCAR-5, in the experiment on M14, with KM12, in the experiment with HOP-62 and in the experiment with UACC-62 was > 100 µM (inactive) in each case. The GI50 is over 100 µM in the experiment on HCT-15 and > 100 µM (inactive) in the experiment with NCI-H460.
Turning to `C#CCN(N=O)C(=O)ON1C(=O)CCC1=O`, the GI50 with ACHN, in the experiment with K562, in the experiment on CCRF-CEM, in the experiment on TK-10, in the experiment with COLO 205 and with SF-268 was > 100 µM (inactive) each time. The GI50 is 61.8 µM (inactive) with OVCAR-5; > 100 µM (inactive) in the experiment with M14; > 100 µM (inactive) with KM12; > 100 µM (inactive) with HOP-62; > 100 µM (inactive) with UACC-62; > 100 µM (inactive) in the experiment on A498. Also, the figures for the GI50 in the experiment with HCT-15 and in the experiment on NCI-H460 were over 100 µM and > 100 µM (inactive), respectively.
Turning to `CC1=C(C#N)C(=O)CC(c2ccc(Cl)cc2)N(C)N1` (centres undefined), the GI50 in the experiment with ACHN, in the experiment on NCI-H226, in the experiment on TK-10, in the experiment with SF-268, with OVCAR-5 and in the experiment with M14 was > 100 µM (inactive) each time. The GI50 with KM12 is > 100 µM (inactive); in the experiment with HOP-62, > 100 µM (inactive); in the experiment on A498, > 100 µM (inactive); in the experiment on HCT-15, over 100 µM; with NCI-H460 it was > 100 µM (inactive).
`FC(F)(F)c1ccccc1/C=N/C12CC3CC(CC(C3)C1)C2`: the GI50 in the experiment on ACHN, with K562, with NCI-H226, with TK-10, with COLO 205 and with SF-268 was > 100 µM (inactive) throughout. Also, the GI50 is > 100 µM (inactive) in the experiment with OVCAR-5; > 100 µM (inactive) in the experiment on M14; > 100 µM (inactive) with KM12; > 100 µM (inactive) with HOP-62; > 100 µM (inactive) in the experiment on A498; over 100 µM in the experiment with HCT-15. In addition, the GI50 in the experiment on NCI-H460 was > 100 µM (inactive).
On to `N#CC(C#N)=C(C(C#N)C#N)C(C#N)C#N`, for which the GI50 in the experiment with K562, in the experiment on NCI-H226, in the experiment with CCRF-CEM, in the experiment on TK-10, in the experiment with COLO 205 and in the experiment with SF-268 was > 100 µM (inactive) throughout. For the same molecule, the GI50 in the experiment with OVCAR-5, in the experiment on M14, in the experiment on KM12, with HOP-62, in the experiment on UACC-62 and in the experiment with A498 was > 100 µM (inactive) in each case. For the same molecule, the values for the GI50 in the experiment on HCT-15 and in the experiment on NCI-H460 were over 100 µM and > 100 µM (inactive), respectively.
